Source: patent US20190106460A1, “BINDING INHIBITORS OF THE BETA. TRANSDUCIN REPEAT-CONTAINING PROTEIN” (priority 2011, published 2019)
Where two headings read alike, the source gives them in different places. Starred links: 1 amine or outer side, 2 acyl side, 3 side chain; linkers in the order of their positions; H or OH if unused. Non-standard residues stand in square brackets, D forms with d. Residues, ends and D or L forms follow the SMILES beside them. *: point of attachment. Phe(4-NO2) = N[C@@H](Cc1ccc([N+](=O)[O-])cc1)C(=O)O; Phe(3-F) = N[C@@H](Cc1cccc(F)c1)C(=O)O; Phe(4-F) = N[C@@H](Cc1ccc(F)cc1)C(=O)O; 1Nal = N[C@@H](Cc1cccc2ccccc12)C(=O)O; Phe(2-F) = N[C@@H](Cc1ccccc1F)C(=O)O; Suc = O=C(CCC(=O)[*:2])[*:1]; Tos = Cc1ccc(S(=O)(=O)*)cc1

How the values were obtained:
βTrCP [1] = target: βTrCP (Homo sapiens, UniProt Q9Y297); assay: Fluorescence polarisation (FP) binding assay with fluorescein-tagged IκB peptide
Target sequence in this assay (P63208 whole entry partner, one chain of several): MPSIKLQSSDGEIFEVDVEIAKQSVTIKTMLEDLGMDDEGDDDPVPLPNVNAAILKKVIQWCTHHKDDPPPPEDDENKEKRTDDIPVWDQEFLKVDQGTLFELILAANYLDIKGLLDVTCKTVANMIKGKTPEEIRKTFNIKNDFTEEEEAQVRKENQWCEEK

βTrCP/Skp1 = βTrCP/Skp1 (Homo sapiens, UniProt Q9Y297); assay: Surface plasmon resonance (SPR), Biacore T200; type: binding; conditions: apparent KD averaged over both surfaces
Protocol: Surface Plasmon Resonance (SPR)
Experiments were carried out using the Biacore T200 SPR detection system. This system exploits the phenomenon of surface plasmon resonance (SPR) to monitor interactions between molecules. The system involves the attachment of one interacting partner to a surface (an appropriate sensor chip) while the other interacting partner is passed over it in solution. The binding of molecules to the surface generates an SPR response (measured in response units (RU)) that is proportional to the mass and amount of the biomolecule (in this case βTrCP/Skp1) bound to the chip. The relative responses obtained are dependent on the concentration of the molecule binding. At RUmaximum, the attached protein's binding sites are saturated. Binding events can be followed in real time and a range of interaction characteristics can be determined including kinetics, specificity of interactions and the concentration of specific molecules in a sample.
As βTrCP was His tagged, an NTA sensor chip was used. This sensor chip has a dextran surface matrix with immobilized nitrilotriacetic acid (NTA) which provides a means of capturing polyHis-tagged proteins through Nickel chelation. It was hoped that addition of Ni^+ would orient the protein in a specific (and hopefully active) manner as it is covalently immobilised via amine coupling. Addition of EDC:NHS (N-ethyl-N′-(3-[…])-carbodiimide:N-hydroxysuccinimide) converts carboxyl groups on the dextran sensor chip surface to succinamide esters which readily form covalent bonds with primary amines. Each chip contains four flow cells (each a separate surface) which means that compounds/peptides can be passed over different forms of βTrCP and a reference surface simultaneously. If binding to βTrCP is occurring, responses should be the same (accounting for differences in density of surface etc) on each surface.
Two different βTrCP protein complexes were immobilised on to an NTA biacore sensor chip. One included the GSTSkp1 fusion (HisβTrCP/GSTSkp1) while the other was immobilised after GST Removal by Thrombin (HisβTrCP/Skp1). To ensure that the GST moiety is completely removed from Skp1, βTrCP/GSTSkp1 was incubated with thrombin ((10units/mg protein) for at least 16 hours at room temperature in 10mMHEPES 150mMNaCl pH7.4+2 mM CaCl2. Thrombin and GST were removed from βTrCP/Skp1 by buffer exchange through a 50 KDa MWCO vivaspin concentrator.
Protein Immobilisation Procedure for NTA Chip
Ni+ (500 μM NiCl) loaded on to surface at a flow rate of 5 μl/min for 60s. EDC/NHS (activates dextran carboxylates) loaded at a flow rate of 5 μl/min for 240s. Protein ([protein]=100 nM to 1 μM) loaded at a flow rate of 10 μl/min for 180s. Strip solution (350 μM EDTA/1M NaCl) added at flow rate of 10 μl/min for 30s (to chelate excess Ni+ and remove non-covalently bound protein e.g. protein oligomers). Quench solution (ethanolamine) at flow rate of 5 μl/min for 240s (to deactivate surface molecules on the chip that have not crosslinked protein). The immobilisation buffer used was 10 mM HEPES pH 7.4, 150 mM NaCl,
GST Capture Procedure (for Immobilisation Via GSTSkp1)
EDC:NHS was injected at 5 μl/min for 4 min to activate surface for amine coupling (this converts carboxyl groups on the surface of the chip to succinamide esters that react with primary amines)
Anti-GST (60 μg/ml). was loaded at 10 μl/min for 4 min resulting in an increase in response units of 6730 (Biacore manual states it should result in ˜7000)
Ethanolamine was injected at 5 μl/min for 5 min to deactivate remaining unreacted esters at surface (quenching).
Injection of a low concentration of purified GST (from kit) was injected for 3 mins at 5 μl/min before running a regeneration cycle with glycine pH2.0 that disrupts the antibody-GST interaction. […]

βTrCP [2] = target: T1, βTrCP (Homo sapiens, UniProt Q9Y297); assay: Biotin pull down assay with biotinylated IκB peptide; type: binding; conditions: for Biotin Pulldown Assay 10 μM: 10 μM compound; for Biotin Pulldown Assay 100 μM: 100 μM compound
T1 sequence (Q9Y297 1-605): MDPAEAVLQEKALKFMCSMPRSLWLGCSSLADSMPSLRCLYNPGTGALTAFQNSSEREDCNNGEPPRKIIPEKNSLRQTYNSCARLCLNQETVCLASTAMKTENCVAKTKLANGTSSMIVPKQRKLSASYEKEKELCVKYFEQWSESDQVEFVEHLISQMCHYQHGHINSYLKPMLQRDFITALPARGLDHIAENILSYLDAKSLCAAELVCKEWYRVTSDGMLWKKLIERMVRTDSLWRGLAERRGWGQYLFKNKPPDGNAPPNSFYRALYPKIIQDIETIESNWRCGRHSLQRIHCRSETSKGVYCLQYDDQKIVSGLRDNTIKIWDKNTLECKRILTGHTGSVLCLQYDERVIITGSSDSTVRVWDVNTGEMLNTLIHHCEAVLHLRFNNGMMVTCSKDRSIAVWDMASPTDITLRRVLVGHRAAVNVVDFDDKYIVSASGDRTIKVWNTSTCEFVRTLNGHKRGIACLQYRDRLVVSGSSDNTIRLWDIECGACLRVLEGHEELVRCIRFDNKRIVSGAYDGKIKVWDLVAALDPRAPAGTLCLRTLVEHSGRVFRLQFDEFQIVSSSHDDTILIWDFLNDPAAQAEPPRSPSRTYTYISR

β-TrCP1/Skp1 = β-TrCP1/Skp1 (Homo sapiens, UniProt Q9Y297); assay: βTrCP ubiquitination assay (Ub assay); type: biochemical; conditions: for Ub Assay 10 μM: 10 μM compound; for Ub Assay 100 μM: 100 μM compound
Protocol: (§1) βTrCP Ubiquitination Assay and Selectivity Assays
0.5 μM Peptide substrate (biotin)
(§2) Master mixes were prepared in a 50 mM Herpes buffer at pH 7.5, in 75 mM NaCl and 1 mM DTT without Mg or ATP and peptides were added to a final concentration of 100 μM. Reactions were incubated at room temperature for 30 minutes and then Mg/ATP was added to the mix. Reactions were further incubated for an additional 60 minutes and then stopped by adding SDS gel loading buffer and boiled for 5 minutes. Reactions were run on SDS-PAGE (10%) and transferred to nitrocellulose membranes and probed with HRP-Streptavidin.
Candidate compounds were tested in duplicate at both 10 and 100 μM against the E3 ligase cascades βTrCP(IκBα) and βTrCP(β-catenin). The E3 assays were carried out according to the component concentrations detailed in Table 9. In each case the E2 was HA,6His-UbcH3-(hu,FL), the E1 was 6His-UBE1-(hu,FL) and the ubiquitin (Sigma U6253) was biotinylated at a 5:1 ratio. Substrate phosphorylation was performed in the absence of compound; consequently any observed signal modulation should not reflect inhibition of the up-stream kinase reaction. All other steps (E1, E2 and substrate ubiquitination) were carried out in the presence of compound. The stopped reaction mix (10 μl) was added to an ECL plate loaded with anti c-Myc ( 1/500 Dilution, Millipore 05-724) and blocked with 5% BSA. Binding was allowed to proceed for 1 hour at RT before a wash step (3 40 μl PBST washes). Detection was achieved by binding SA-Ru TAG at 1 μg/ml (1 hour @ RT, 3 40 μl PBST washes) before reading on an MSD Sector Imager 6000.
Assays were performed as described above

Skp2 = Skp2 (Homo sapiens, UniProt Q13309); assay: Selectivity assay vs other E3s: Skp2; type: biochemical; conditions: for inhibition at 100 µM: value in brackets, read-out: % Inhibition Skp2 @ (100 μM); for inhibition at 10 µM: read-out: % Inhibition Skp2 @ 10 μM
Protocol: as §1, §2
(§3) Candidate compounds were tested for inhibition of Fbw7 and Skp2 as described above.

FBW7/Skp1 = FBW7/Skp1 (Homo sapiens, UniProt Q969H0); assay: Selectivity assay vs other E3s: Fbw7; type: biochemical; conditions: for inhibition at 100 µM: value in brackets, read-out: % Inhibition Fbw7 @ (100 μM); for inhibition at 10 µM: read-out: % Inhibition Fbw7 @ 10 μM
Protocol: as §1, §2
FBW7 selectivity assays were performed in the same manner except using FBW7/Skp1 as E3 component and cyclin E as the substrate. Blots were probed using anti-cyclin E antibody.
as §3

[3] = Table 11, with spread, read-out: FP IC50/μM
[4] = Tables 1, 3, 7, 8, 10 nM fluorescein-tagged IκB peptide, read-out: FP Assay IC50/μM

Chain of Skp2 (Q13309 whole entry, species assumed): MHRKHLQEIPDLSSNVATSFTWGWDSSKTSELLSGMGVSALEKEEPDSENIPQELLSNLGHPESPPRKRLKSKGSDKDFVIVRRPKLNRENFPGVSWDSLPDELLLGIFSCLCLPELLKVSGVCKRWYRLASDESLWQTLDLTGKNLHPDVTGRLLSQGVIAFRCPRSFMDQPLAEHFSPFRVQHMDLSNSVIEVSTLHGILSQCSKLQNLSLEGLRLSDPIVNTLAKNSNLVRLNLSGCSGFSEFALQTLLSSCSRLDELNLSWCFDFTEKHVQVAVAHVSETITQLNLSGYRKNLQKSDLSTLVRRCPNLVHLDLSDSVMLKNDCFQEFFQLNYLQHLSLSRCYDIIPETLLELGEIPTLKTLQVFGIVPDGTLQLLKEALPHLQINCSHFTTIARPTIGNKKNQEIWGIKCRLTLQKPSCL
Chain of Skp2 (P63208 whole entry partner, species assumed): as the sequence (P63208 whole entry partner, one chain of several) above
Chain of Skp2 (Q13616 whole entry partner, species assumed): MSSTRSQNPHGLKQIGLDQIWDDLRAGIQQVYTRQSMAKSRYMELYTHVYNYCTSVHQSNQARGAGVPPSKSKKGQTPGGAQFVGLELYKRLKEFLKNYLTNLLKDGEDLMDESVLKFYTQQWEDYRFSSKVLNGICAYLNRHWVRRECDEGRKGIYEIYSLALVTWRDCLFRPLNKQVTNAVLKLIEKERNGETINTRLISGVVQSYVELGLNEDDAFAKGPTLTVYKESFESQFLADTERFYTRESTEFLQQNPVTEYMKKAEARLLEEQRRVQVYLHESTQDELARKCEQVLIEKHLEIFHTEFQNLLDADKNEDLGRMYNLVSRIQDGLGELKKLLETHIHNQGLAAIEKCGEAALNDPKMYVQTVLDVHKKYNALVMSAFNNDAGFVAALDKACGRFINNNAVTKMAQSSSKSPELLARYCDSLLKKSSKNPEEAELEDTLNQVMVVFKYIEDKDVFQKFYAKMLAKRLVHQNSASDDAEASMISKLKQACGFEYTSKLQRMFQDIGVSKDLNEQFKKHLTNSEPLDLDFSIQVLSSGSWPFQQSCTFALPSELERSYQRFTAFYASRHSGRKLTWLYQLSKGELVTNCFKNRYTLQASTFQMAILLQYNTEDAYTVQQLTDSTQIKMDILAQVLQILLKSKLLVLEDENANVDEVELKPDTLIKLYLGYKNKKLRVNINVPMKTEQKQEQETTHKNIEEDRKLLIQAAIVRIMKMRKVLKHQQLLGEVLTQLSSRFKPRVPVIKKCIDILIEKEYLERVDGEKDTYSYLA
Chain of Skp2 (P62877 whole entry partner, species assumed): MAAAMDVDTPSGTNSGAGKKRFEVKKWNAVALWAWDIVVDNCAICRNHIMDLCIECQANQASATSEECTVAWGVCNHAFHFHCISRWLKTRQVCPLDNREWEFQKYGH
Chain of FBW7/Skp1 (Q969H0 whole entry, species assumed): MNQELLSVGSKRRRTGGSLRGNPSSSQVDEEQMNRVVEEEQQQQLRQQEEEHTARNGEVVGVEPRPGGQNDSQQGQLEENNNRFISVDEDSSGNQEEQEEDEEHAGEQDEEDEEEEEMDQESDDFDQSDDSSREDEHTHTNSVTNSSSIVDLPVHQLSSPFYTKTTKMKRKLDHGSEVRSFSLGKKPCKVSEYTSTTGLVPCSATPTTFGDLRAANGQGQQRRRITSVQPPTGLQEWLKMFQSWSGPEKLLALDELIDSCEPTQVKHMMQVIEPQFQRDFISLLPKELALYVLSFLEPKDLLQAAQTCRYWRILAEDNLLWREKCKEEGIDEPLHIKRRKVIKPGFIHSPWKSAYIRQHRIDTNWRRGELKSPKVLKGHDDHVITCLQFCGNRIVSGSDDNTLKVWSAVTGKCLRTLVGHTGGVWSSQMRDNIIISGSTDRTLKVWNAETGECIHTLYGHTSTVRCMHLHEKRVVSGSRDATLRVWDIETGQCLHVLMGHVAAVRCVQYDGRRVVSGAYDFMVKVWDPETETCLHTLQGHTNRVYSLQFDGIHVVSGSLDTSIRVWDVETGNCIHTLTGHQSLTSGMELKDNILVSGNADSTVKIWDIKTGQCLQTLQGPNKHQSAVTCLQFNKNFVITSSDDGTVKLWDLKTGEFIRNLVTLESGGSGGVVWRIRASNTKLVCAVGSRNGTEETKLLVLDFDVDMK
Chain of FBW7/Skp1 (P63208 whole entry partner, species assumed): as the sequence (P63208 whole entry partner, one chain of several) above
Chain of FBW7/Skp1 (Q13616 whole entry partner, species assumed): as the sequence (Q13616 whole entry partner, species assumed) above
Chain of FBW7/Skp1 (P62877 whole entry partner, species assumed): as the sequence (P62877 whole entry partner, species assumed) above
Chain of β-TrCP1/Skp1 (P63208 2-163 partner limits assumed, one chain of several): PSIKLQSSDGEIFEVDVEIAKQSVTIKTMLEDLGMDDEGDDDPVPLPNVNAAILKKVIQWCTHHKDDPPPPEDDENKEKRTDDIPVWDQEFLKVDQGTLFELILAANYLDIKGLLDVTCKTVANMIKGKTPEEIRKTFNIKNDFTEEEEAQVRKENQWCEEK
Chain of βTrCP/Skp1 (P63208 whole entry partner, one chain of several): as the sequence (P63208 whole entry partner, one chain of several) above

## NC(=O)[C@H](CCC(=O)O)NC(=O)[C@H](Cc1ccc([N+](=O)[O-])cc1)NC(=O)[C@H](Cc1ccccc1F)NC(=O)CNC(=O)[C@H](CCC(=O)O)NC(=O)CCC(=O)O [UBP003, Suc-EGF(2F)F(4NO2)E-NH2] (Suc-EG[Phe(2-F)][Phe(4-NO2)]E-NH2)
βTrCP [1]; [3]
  IC50: 4.91 ± 0.702 µM
βTrCP/Skp1
  Kd: 8 ± 0.26 µM
βTrCP [2]
  Biotin Pulldown Assay 10 μM: no effect/
  Biotin Pulldown Assay 100 μM: reduces
β-TrCP1/Skp1
  Ub Assay 10 μM: no effect/
  Ub Assay 100 μM: inhibits
Skp2
  inhibition at 100 µM: 11%
  inhibition at 10 µM: 8%
FBW7/Skp1
  inhibition at 100 µM: 0%
  inhibition at 10 µM: 0%

## NC(=O)[C@H](CCC(=O)O)NC(=O)[C@H](Cc1cccc2ccccc12)NC(=O)[C@H](Cc1ccc([N+](=O)[O-])cc1)NC(=O)CNC(=O)[C@H](CCC(=O)O)NC(=O)CCC(=O)O [UBP011, Suc-EGF(4NO2)1NalE-NH2] (Suc-EG[Phe(4-NO2)][1Nal]E-NH2)
βTrCP [1]; [3]
  IC50: 1.31 ± 0.198 µM
βTrCP/Skp1
  Kd: 1.96 ± 0.635 µM
βTrCP [2]
  Biotin Pulldown Assay 10 μM: reduces/
  Biotin Pulldown Assay 100 μM: inhibits
β-TrCP1/Skp1
  Ub Assay 10 μM: reduces/
  Ub Assay 100 μM: inhibits
Skp2
  inhibition at 100 µM: 6%
  inhibition at 10 µM: 12%
FBW7/Skp1
  inhibition at 100 µM: 28%
  inhibition at 10 µM: 14%

## NC(=O)[C@H](CCC(=O)O)NC(=O)[C@H](Cc1ccc([N+](=O)[O-])cc1)NC(=O)[C@H](Cc1ccc(O)cc1)NC(=O)CNC(=O)[C@H](CCC(=O)O)NC(=O)CCC(=O)O [UBP013, Suc-EGYF(4NO2)E-NH2] (Suc-EGY[Phe(4-NO2)]E-NH2)
βTrCP [1]; [3]
  IC50: 2.07 ± 0.346 µM
βTrCP/Skp1
  Kd: 17.7 ± 5.2 µM
βTrCP [2]
  Biotin Pulldown Assay 10 μM: no effect/
  Biotin Pulldown Assay 100 μM: inhibits
β-TrCP1/Skp1
  Ub Assay 10 μM: no effect/
  Ub Assay 100 μM: inhibits
Skp2
  inhibition at 100 µM: 31%
  inhibition at 10 µM: 11%
FBW7/Skp1
  inhibition at 100 µM: 0%
  inhibition at 10 µM: 0%

## NC(=O)[C@H](CCC(=O)O)NC(=O)[C@H](Cc1ccc([N+](=O)[O-])cc1)NC(=O)[C@H](Cc1ccc(F)cc1)NC(=O)CNC(=O)[C@H](CCC(=O)O)NC(=O)CCC(=O)O [UBP005, Suc-EGF(4F)F(4NO2)E-NH2] (Suc-EG[Phe(4-F)][Phe(4-NO2)]E-NH2)
βTrCP [1]; [3]
  IC50: 1.21 ± 0.093 µM
βTrCP/Skp1
  Kd: 0.507 ± 0.267 µM
βTrCP [2]
  Biotin Pulldown Assay 10 μM: no effect/
  Biotin Pulldown Assay 100 μM: inhibits
β-TrCP1/Skp1
  Ub Assay 10 μM: reduces/
  Ub Assay 100 μM: inhibits
Skp2
  inhibition at 100 µM: 0%
  inhibition at 10 µM: 0%
FBW7/Skp1
  inhibition at 100 µM: 0%
  inhibition at 10 µM: 0%

## NC(=O)[C@H](CCC(=O)O)NC(=O)[C@H](Cc1cccc2ccccc12)NC(=O)[C@H](Cc1cccc(F)c1)NC(=O)CNC(=O)[C@H](CCC(=O)O)NC(=O)CCC(=O)O [UBP010, Suc-EGF(3F)1NalE-NH2] (Suc-EG[Phe(3-F)][1Nal]E-NH2)
βTrCP [1]; [3]
  IC50: 0.157 ± 0.037 µM
βTrCP [1]; [4]
  IC50: 0.157 µM
βTrCP/Skp1
  Kd: 0.32 ± 0.24 µM
βTrCP [2]
  Biotin Pulldown Assay 10 μM: inhibits/
  Biotin Pulldown Assay 100 μM: inhibits
β-TrCP1/Skp1
  Ub Assay 10 μM: inhibits/
  Ub Assay 100 μM: inhibits
Skp2
  inhibition at 100 µM: 12%
  inhibition at 10 µM: 0%
FBW7/Skp1
  inhibition at 100 µM: 0%
  inhibition at 10 µM: 3%

## Cc1ccc(S(=O)(=O)N[C@H](CC(=O)O)C(=O)N[C@@H](CC(=O)O)C(=O)NCC(=O)N[C@@H](Cc2cccc(F)c2)C(=O)N[C@@H](Cc2c[nH]c3ccccc23)C(=O)N[C@@H](CC(=O)O)C(N)=O)cc1 [UBP028, Ts-dDGF(3F)WD-NH2] (Tos-[dD]DG[Phe(3-F)]WD-NH2)
βTrCP [1]; [3]
  IC50: 0.081 ± 0.02 µM
βTrCP [1]; [4]
  IC50: 0.081 µM
βTrCP [2]
  Biotin Pulldown Assay 10 μM: reduces/
  Biotin Pulldown Assay 100 μM: inhibits
β-TrCP1/Skp1
  Ub Assay 10 μM: inhibits/
  Ub Assay 100 μM: inhibits
Skp2
  inhibition at 100 µM: 14%
  inhibition at 10 µM: 0%
FBW7/Skp1
  inhibition at 100 µM: 10%
  inhibition at 10 µM: 4%
